Holding throughout (type): functional, cell-based
One experiment relates to A549. The experiment in a line: Cytotoxicity against human A549 cells after 48 hrs by MTT method. The note with it: A549, 48 h. In general terms: Tetrazolium dyes change colour on reduction, which living cells bring about.
The test system of another experiment is MCF7. Kind of experiment: Cytotoxicity against human MCF7 cells after 48 hrs by MTT method. Particulars: MCF7, 48 h.
For another experiment, the system named is SW480. The experiment in a line: Cytotoxicity against human SW480 cells after 48 hrs by MTT method. The note with it: SW480, 48 h.
Another experiment relates to HL-60. The experiment in a line: Cytotoxicity against human HL60 cells after 48 hrs by MTT method. The note with it: HL-60, 48 h.
The test system of the next experiment is SMMC-7721. The experiment in a line: Cytotoxicity against human SMMC7721 cells after 48 hrs by MTT method. Particulars: SMMC-7721, 48 h.

From ChEMBL document CHEMBL1799954, “Structure and cytotoxicity of diterpenoids from Isodon adenolomus” (J Nat Prod, 2011) come the findings set out here.

As usually defined, the IC50 is the midpoint of a concentration-inhibition curve. Higher therefore signals a need for much substance.

`C=C1[C@@H](O)[C@]23[C@H](O)[C@H]1CC[C@H]2[C@@]12C(=O)O[C@]3(O)[C@@H](O)[C@@H]1C(C)(C)CC[C@@H]2OC(C)=O`: the concentration for half-maximal inhibition (IC50) in the experiment with A549, in the experiment with MCF7, with SW480, in the experiment on HL-60 and in the experiment with SMMC-7721 was above 10 µM each time.
As for `C=C1C(=O)[C@]23C[C@H]1CC[C@H]2[C@@]12CO[C@@]3(O)[C@@H](O)[C@@H]1C(C)(C)CC[C@@H]2OC(C)=O` [EFFUSANIN B], the IC50 was determined as 3.5 µM with A549; 0.7 µM in the experiment on MCF7; 0.8 µM in the experiment with SW480; 0.7 µM with HL-60; 1 µM in the experiment with SMMC-7721.
In the case of `C=C1[C@@H](O)[C@@]23[C@H]4O[C@H]5O[C@]2(O)[C@@H](OC(C)=O)[C@@H]2C(C)(C)CCC[C@@]52[C@@H]3[C@@H](O)C[C@@H]14` [ISOADENOLIN A], the half-inhibitory concentration (IC50) with A549, in the experiment on MCF7, in the experiment on SW480, in the experiment on HL-60 and in the experiment on SMMC-7721 was above 10 µM in each case.
As to `C=C1C(=O)[C@@]23[C@H]4O[C@H]5O[C@]2(O)[C@@H](O)[C@@H]2C(C)(C)CC[C@H](OC(C)=O)[C@]52[C@@H]3CC[C@@H]14` [ISOADENOLIN B], the IC50 in the experiment with A549, in the experiment with MCF7, in the experiment with SW480, with HL-60 and with SMMC-7721 was above 10 µM each time.
As to `COC[C@H]1C(=O)[C@@]23[C@H]4O[C@H]5O[C@]2(O)[C@@H](O)[C@@H]2C(C)(C)CC[C@H](O)[C@]52[C@@H]3CC[C@@H]14` [ISOADENOLIN C], the IC50 with A549, in the experiment on MCF7, in the experiment with SW480, in the experiment on HL-60 and with SMMC-7721 was above 10 µM throughout.
In the case of `COC[C@@H]1C(=O)[C@]23[C@H](O)[C@H]1C[C@H](O)[C@H]2[C@@]12CCCC(C)(C)[C@H]1[C@H](O)[C@@]3(O)O[C@@H]2OC` [ISOADENOLIN D], the half-inhibitory concentration (IC50) in the experiment on A549, in the experiment on MCF7, with SW480, in the experiment with HL-60 and in the experiment with SMMC-7721 was above 10 µM in each case.
`C=C1[C@@H](O)[C@]23[C@H](O)[C@H]1C[C@H](O)[C@H]2[C@@]12CCCC(C)(C)[C@H]1[C@H](O)[C@@]3(O)O[C@@H]2OC` [ISOADENOLIN E]: the half-inhibitory concentration (IC50) in the experiment on A549, with MCF7, in the experiment with SW480, in the experiment on HL-60 and in the experiment on SMMC-7721 was above 10 µM throughout.
Regarding `C=C1[C@@H](O)[C@]23[C@H](O)[C@H]1C[C@H](O)[C@H]2[C@@]12CCCC(C)(C)[C@H]1[C@H](OC(C)=O)[C@@]3(O)O[C@@H]2OC` [ISOADENOLIN F], the IC50 in the experiment with A549, in the experiment with MCF7, in the experiment on SW480, with HL-60 and in the experiment on SMMC-7721 was above 10 µM in each case.
For `C=C1[C@@H](O)[C@]23[C@H](O)[C@H]1C[C@H](OC(C)=O)[C@H]2[C@@]12CCCC(C)(C)[C@H]1[C@H](O)[C@@]3(O)O[C@@H]2OC` [ISOADENOLIN G], the half-inhibitory concentration (IC50) with A549, with MCF7, in the experiment on SW480, in the experiment on HL-60 and in the experiment with SMMC-7721 was above 10 µM throughout.
For `C=C1C(=O)[C@]23[C@H](O)[C@H]1CC[C@H]2[C@@]12[C@H](OC)O[C@]3(O)[C@@H](O)[C@@H]1C(C)(C)CC[C@@H]2OC(C)=O` [ISOADENOLIN H], the half-inhibitory concentration (IC50) in the experiment on A549, in the experiment with MCF7, in the experiment with SW480, in the experiment on HL-60 and with SMMC-7721 was above 10 µM each time.
With `C=C1C(=O)[C@]23C[C@H]1CC=C2[C@@]12CO[C@]3(O)[C@@H](O)[C@@H]1C(C)(C)CC[C@@H]2OC(C)=O` [ISOADENOLIN I], the IC50 in the experiment with A549 was found to be 5 µM; in the experiment on MCF7, 2.6 µM; in the experiment with SW480, 3.1 µM; in the experiment on HL-60 it was 2.6 µM; in the experiment on SMMC-7721, 3 µM.
With `C=C1C(=O)[C@@]23C(=CC[C@@H]1[C@H]2O)[C@@]12CO[C@]3(O)[C@@H](O)[C@@H]1C(C)(C)CC[C@@H]2OC(C)=O` [ISOADENOLIN J], the IC50 in the experiment with A549, with MCF7, with SW480, in the experiment with HL-60 and in the experiment with SMMC-7721 was above 10 µM throughout.
Take `C=C1[C@H]2C[C@]3(C(=C[C@@H]2O)[C@@]24CO[C@]3(O)[C@@H](O)[C@@H]2C(C)(C)CC[C@@H]4OC(C)=O)[C@@H]1O` [ISOADENOLIN K]: the IC50 in the experiment on A549 stood at 14.1 µM; in the experiment on MCF7, 3 µM; in the experiment on SW480 it was 3.1 µM; in the experiment with HL-60 it was 3.5 µM; in the experiment on SMMC-7721, 5.7 µM.
Take `COC[C@H]1C(=O)[C@]23[C@H](O)[C@H]1CC[C@H]2[C@@]12CO[C@]3(O)[C@@H](O)[C@@H]1C(C)(C)CC[C@@H]2OC(C)=O` [LASIOKAURININ]: the half-maximal inhibitory concentration (IC50) was 20.4 µM with A549; 6 µM in the experiment on MCF7; 4.9 µM in the experiment on SW480; 6.8 µM in the experiment with HL-60; 4.8 µM in the experiment on SMMC-7721.
Consider `C=C1C(=O)[C@]23[C@H](O)[C@H]1CC[C@H]2[C@@]12CO[C@@]3(O)[C@@H](O)[C@@H]1C(C)(C)CC[C@@H]2OC(C)=O` [LASIOKAURIN], for which the IC50 in the experiment on A549 amounted to 7.6 µM; in the experiment on MCF7, 5.3 µM; with SW480, 2.3 µM; in the experiment on HL-60, 3.2 µM; with SMMC-7721, 2 µM.
For the compound `C=C1C(=O)[C@]23C[C@H]1C[C@@H](OC(C)=O)[C@H]2[C@]12CCCC(C)(C)[C@H]1[C@H](O)[C@@]3(O)OC2` [LONGIKAURIN E], the concentration for half-maximal inhibition (IC50) with A549 worked out at 3.9 µM; in the experiment with MCF7 it was 1.9 µM; with SW480, 2.4 µM; in the experiment on HL-60, 1.8 µM; in the experiment with SMMC-7721 it was 1.9 µM.
With `C=C1C(=O)[C@@]23[C@@H]4O[C@H]5O[C@@]2(O)[C@@H](O)[C@@H]2C(C)(C)CCC[C@]52[C@@H]3[C@@H](O)C[C@@H]14` [MACROCALIN B], the half-inhibitory concentration (IC50) with A549 stood at 31.9 µM; with MCF7, 26.9 µM; with SW480, 10.9 µM; with HL-60 it was 12.4 µM; with SMMC-7721 it was 9.1 µM.
Turning to `CC(=O)O[C@H]1C(=O)[C@@]2(C)[C@H]([C@H](OC(=O)c3ccccc3)[C@]3(O)C[C@H](OC(=O)[C@H](O)[C@@H](NC(=O)c4ccccc4)c4ccccc4)C(C)=C1C3(C)C)[C@]1(OC(C)=O)CO[C@@H]1C[C@@H]2O` [PACLITAXEL], the IC50 in the experiment with A549 was below 0.008 µM; in the experiment with MCF7, below 0.008 µM; in the experiment with SW480, below 0.008 µM; with HL-60 it was 0.01 µM; with SMMC-7721, below 0.008 µM.
In the case of `C=C1C(=O)[C@@]23[C@@H]4OC5O[C@@]2(O)[C@@H](O)[C@@H]2C(C)(C)CC[C@@H](O)[C@]52[C@@H]3CC[C@@H]14` [PONICIDIN], the concentration for half-maximal inhibition (IC50) came out at 16.5 µM with A549; 16.3 µM in the experiment with MCF7; 2.8 µM in the experiment on SW480; 7.4 µM in the experiment with HL-60; 5 µM with SMMC-7721.
For the compound `C=C1C(=O)[C@@]23[C@@H]4O[C@H]5O[C@@]2(O)[C@@H](O)[C@@H]2C(C)(C)CCC[C@]52[C@@H]3CC[C@@H]14` [XEROPHILUSIN B], the half-inhibitory concentration (IC50) in the experiment on A549 is 2 µM; in the experiment on MCF7, 1.1 µM; in the experiment on SW480, 0.9 µM; with HL-60, 0.8 µM; with SMMC-7721 it was 1.3 µM.
On to `C=C1C(=O)[C@]23[C@H](O)[C@H]1CC[C@H]2[C@@]12[C@H](O)O[C@]3(O)[C@@H](O)[C@@H]1C(C)(C)CC[C@@H]2OC(C)=O` [XEROPHILUSIN J], for which the IC50 came to 21.7 µM in the experiment with A549; 9.7 µM with MCF7; 2.7 µM with SW480; 7.6 µM in the experiment on HL-60; 4.6 µM in the experiment on SMMC-7721.
For the compound `C=C1C(=O)[C@]23[C@H](O)[C@H]1CC[C@H]2[C@]12CCCC(C)(C)[C@H]1[C@H](O)[C@]3(O)OC2=O` [XEROPHILUSIN N], the concentration for half-maximal inhibition (IC50) worked out at 9.7 µM in the experiment on A549; 7.9 µM with MCF7; 3.5 µM with SW480; 3.8 µM in the experiment on HL-60; 3.6 µM in the experiment on SMMC-7721.
